Assay results from EP4786454A1, “HETEROARYL DERIVATIVE AND USE THEREOF” (priority 2023, dated 2025).
Read-outs that look alike come from different tables or passages of the source.

Molecular target: T1, CYP1A2 (Homo sapiens, UniProt P05177)
T1 construct: from tissue; host or cells: human liver microsomes
T1 sequence (P05177 1-516): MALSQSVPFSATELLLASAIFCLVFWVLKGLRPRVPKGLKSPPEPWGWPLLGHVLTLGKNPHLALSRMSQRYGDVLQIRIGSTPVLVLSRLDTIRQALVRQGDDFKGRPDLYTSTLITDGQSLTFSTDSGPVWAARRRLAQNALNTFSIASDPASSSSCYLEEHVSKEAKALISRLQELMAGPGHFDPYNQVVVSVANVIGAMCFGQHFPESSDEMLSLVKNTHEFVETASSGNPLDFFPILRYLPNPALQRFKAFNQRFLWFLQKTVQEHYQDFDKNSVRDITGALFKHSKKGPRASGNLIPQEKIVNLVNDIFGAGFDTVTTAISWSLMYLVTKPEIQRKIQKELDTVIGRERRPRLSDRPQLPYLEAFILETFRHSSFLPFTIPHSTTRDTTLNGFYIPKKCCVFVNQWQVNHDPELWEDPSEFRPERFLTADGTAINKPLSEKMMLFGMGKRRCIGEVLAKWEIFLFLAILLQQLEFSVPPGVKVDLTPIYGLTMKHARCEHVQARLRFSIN
Test: Drug-drug interaction, CYP inhibition in human liver microsomes, cocktail method
Format: in vitro ADME
Method: The inhibitory effects of compounds on the activity of human liver microsomal cytochrome P450 isoenzymes (CYP1A2, CYP2C9, CYP2C19, CYP2D6, and CYP3A) were evaluated using a cocktail method with specific probe substrates for CYP1A2, CYP2C9, CYP2C19, CYP2D6, and CYP3A.
Human liver microsomes, probe substrates, positive control inhibitor, and reduced nicotinamide adenine dinucleotide phosphate.
20 µL of a substrate solution was added to the corresponding well of a reaction plate, and 20 µL of potassium phosphate buffer was added to the blank wells.
2 µL of a test compound working solution and positive control working solution were added to the corresponding wells, and 2 µL of solvent was added to the inhibitor-free wells and blank wells.
Human liver microsomal working solution was prepared, and 158 µL of human liver microsomal working solution was added to each well of the reaction plate.
The reaction plate was preheated at 37.0 °C for 10 minutes.
20 µL of NADPH cofactor working solution was added to the reaction plate to initiate the reaction.
The mixture was mixed and incubated in a 37.0 °C water bath for 10 minutes, and 400 µL of stop solution was added to the reaction plate to terminate the reaction.
The sample plate was placed in a centrifuge, and centrifuged at 4000 rpm for 20 minutes.
200 µL of supernatant was taken out, and appropriate 100 µL of pure water was added for dilution. The plate was shaken until the mixture was mixed well.
The analysis was performed using liquid chromatography-tandem mass spectrometry (LC-MS/MS).
The IC50 values of the assay samples were calculated by performing a three-parameter or four-parameter nonlinear regression analysis using XL fit software, with the remaining percentage of activity as the ordinate and the assay sample concentration as the abscissa. When the IC50 obtained by fitting with XL fit software was greater than the maximum administration concentration (50.0 µM) or IC50 could not be obtained by fitting, the IC50 value was marked as ">50.0 µM".
Three-parameter equation: y = (max)/(1 + (((x)/(IC50)))^−hillslope) [formula]
Four-parameter equation: y = min + (max−min)/(1 + (((x)/(IC50)))^−hillslope) [formula] max: maximum enzyme activity; min: minimum enzyme activity; x: concentration of the assay sample or positive control inhibitor; y: enzyme activity at the corresponding concentration; hillslope: slope; IC50: half-maximal inhibitory concentration; the four-parameter equation was used when the minimum enzyme activity was within ±10%, otherwise the three-parameter equation was used. Drug-drug interaction assay results of the compounds of the present disclosure

[1] = human liver microsomes, maximum concentration 50.0 µM, read-out: CYP 1A2 (IC50)

Compound	IC50 [µM]	IC50 [1] [µM]
CC(C)(C)CC(=O)Nc1nc2c(F)cc(C#N)cn2c1-c1ccc(OC(F)(F)F)cc1 [Compound 1]	> 50	
CC(C)(C)CC(=O)Nc1nc2c(F)cc(C#N)cn2c1C1=CCCC1 [Compound 3]		> 50
CC(C)(C)CC(=O)Nc1nc2c(F)cc(C#N)cn2c1C12CC(C1)C2 [Compound 5]		> 50
CC(C)(C)CC(=O)Nc1nc2c(C(F)(F)F)cc(C#N)cn2c1C12CC(C1)C2 [Compound 6]		> 50
